Assay results: US11542274B1, “Therapeutic compounds and methods of use thereof” (AGENCY FOR SCIENCE, TECHNOLOGY AND RESEARCH (A*STAR), priority 2019, dated 2023)

Columns and labels:
[1] = tested on: RAMOS cells (Burkitt's lymphoma cell line); test: Anti-proliferation assay (CellTiter-Glo); type: cell-based; conditions: Homo sapiens, 72 h, 3 days
Description: In cell growth experiments, cells were seeded in 96-well cell culture plates at a density of 3000 of RAMOS cells/well in 100 μL of culture medium. 100 μL of the diluted solution containing the tested compound was added to the appropriate wells of the cell plate. After addition of the tested compound, the cells were incubated at 37° C. in an atmosphere of 5% CO2 for 3 days. CellTiter-Glo (CTG) reagent from the Promega CellTiter-Glo Luminescent Cell Viability Assay kit (#G7572) was added into an OptiPlate 96 (Perkin Elmer, White, Opaque, #6005299) in the dark, incubated for at least 2 hrs, and luminescence signal was read using Tecan Safire II Multi-Mode Plate Reader. The GI50 was calculated by nonlinear regression analysis using GraphPad Prism5 software.
GI50 is the concentration for 50% of maximal inhibition of cell proliferation.

truncated CRBN (319-427) = truncated CRBN (319-427) (Homo sapiens (Human), UniProt Q96SW2); test: Fluorescence binding assay (fluorescence quenching), affinity to E3-CEREBLON (CRBN)-ubiquitin ligase; conditions: pH 6.5
Description: Fluorescence quenching end point measurements were performed in black polystyrene 384-plates on Tecan Safire monochromator reader with the following settings: excitation 280 nm; excitation bandwidth 10.0 nm; emission collection 340 nm; emission bandwidth 20.0 nm; high sensitivity flash mode; integration time 40 μS; delay 0 μm. All measurements were done in duplicates; GraphPad Prism 5.03 was used for data evaluation, curve fitting, plotting and determination of IC50 values.
Serial dilutions of each tested ligands were mixed with truncated CRBN (319-427) to a final volume of 25 μL in the assay buffer (20 mM sodium phosphate buffer, pH 6.5, with 150 mM sodium chloride). The final concentration of CRBN in all assay will be 5-10 μM with DMSO level at 4%. A control lanes were prepared with only tested ligands without the addition of CRBN, top up with assay buffer to 25 μL. Plates were incubated for 5 minutes and analyzed using the monochromator plate reader.
IC50 is the compound concentration that causes 50% quenching of the desired activity.

[2] = ubiquitination moiety and linker

Chain of truncated CRBN (319-427) (Q96SW2 319-427): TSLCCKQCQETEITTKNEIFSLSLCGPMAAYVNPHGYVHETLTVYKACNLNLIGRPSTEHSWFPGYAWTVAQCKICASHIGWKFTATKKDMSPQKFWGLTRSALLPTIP

| Compound | IC50 (truncated CRBN (319-427); ubiquitination moiety) [µM] | further results |
| --- | --- | --- |
| Cc1sc2c(c1C)C(c1ccc(Cl)cc1)=N[C@@H](CC(=O)NCCNc1ccc(-c3ccc4c(c3)CC(=O)N4)cn1)c1nnc(C)n1-2 [Compound 124, (S)-2-(4-(4-chlorophenyl)-2,3,9-trimethyl-6H-thieno[3,2-f][1,2,4]triazolo[4,3-a][1,4]diazepin-6-yl)-N-(2-((5-(2-oxoindolin-5-yl)pyridin-2-yl)amino)ethyl)acetamide] | – | GI50 [1]: 0.001 to 0.1 µM |
| Cc1sc2c(c1C)C(c1ccc(Cl)cc1)=N[C@@H](CC(=O)NCCCCCNc1ccc(-c3ccc4c(c3)CC(=O)N4)cn1)c1nnc(C)n1-2 [Compound 126, (S)-2-(4-(4-chlorophenyl)-2,3,9-trimethyl-6H-thieno[3,2-f][1,2,4]triazolo[4,3-a][1,4]diazepin-6-yl)-N-(5-((5-(2-oxoindolin-5-yl)pyridin-2-yl)amino)pentyl)acetamide] | – | GI50 [1]: 0.001 to 0.1 µM |
| Cc1sc2c(c1C)C(c1ccc(Cl)cc1)=N[C@@H](CC(=O)NCCOCCOCCOCCNc1ccc(-c3ccc4c(c3)CC(=O)N4)cn1)c1nnc(C)n1-2 [Compound 099, (S)-2-(4-(4-chlorophenyl)-2,3,9-trimethyl-6H-thieno[3,2-f][1,2,4]triazolo[4,3-a][1,4]diazepin-6-yl)-N-(2-(2-(2-(2-((5-(2-oxoindolin-5-yl)pyridin-2-yl)amino)ethoxy)ethoxy)ethoxy)ethyl)acetamide] | – | GI50 [1]: 0.001 to 0.1 µM |
| Cc1sc2c(c1C)C(c1ccc(Cl)cc1)=N[C@@H](CC(=O)NCCOCCNc1ncccc1-c1ccc3c(c1)CC(=O)N3)c1nnc(C)n1-2 [Compound 135, (S)-2-(4-(4-chlorophenyl)-2,3,9-trimethyl-6H-thieno[3,2-f][1,2,4]triazolo[4,3-a][1,4]diazepin-6-yl)-N-(2-(2-((3-(2-oxoindolin-5-yl)pyridin-2-yl)amino)ethoxy)ethyl)acetamide] | – | GI50 [1]: 0.001 to 0.1 µM |
| Cc1sc2c(c1C)C(c1ccc(Cl)cc1)=N[C@@H](CC(=O)Nc1ccc(OCCOCCOCCNc3ccc(-c4ccc5c(c4)CC(=O)N5)cn3)cc1)c1nnc(C)n1-2 [Compound 118, (S)-2-(4-(4-chlorophenyl)-2,3,9-trimethyl-6H-thieno[3,2-f][1,2,4]triazolo[4,3-a][1,4]diazepin-6-yl)-N-(4-(2-(2-(2-((5-(2-oxoindolin-5-yl)pyridin-2-yl)amino)ethoxy)ethoxy)ethoxy)phenyl)acetamide] | – | GI50 [1]: 0.1 to 1 µM |
| Cc1sc2c(c1C)C(c1ccc(Cl)cc1)=N[C@@H](CC(=O)NCCOCCOCCOCCNc1ccc(C(=O)Nc3ccc4c(c3)CC(=O)N4)cn1)c1nnc(C)n1-2 [Compound 101, (S)-6-((1-(4-(4-chlorophenyl)-2,3,9-trimethyl-6H-thieno[3,2-f][1,2,4]triazolo[4,3-a][1,4]diazepin-6-yl)-2-oxo-6,9,12-trioxa-3-azatetradecan-14-yl)amino)-N-(2-oxoindolin-5-yl)nicotinamide] | – | GI50 [1]: 0.1 to 1 µM |
| Nc1ccc(OCCOCCOCCOCCNC(=O)c2cccc(-c3ccc4c(c3)NC(=O)C4)c2)cc1 [Compound 090, N-(2-(2-(2-(2-(4-aminophenoxy)ethoxy)ethoxy)ethoxy)ethyl)-3-(2-oxoindolin-6-yl)benzamide] | – | IC50 (truncated CRBN (319-427); [2]): 100 to 300 µM |
| Nc1ccc(OCCOCCOCCOCCNc2ccc(-c3ccc4c(c3)CC(=O)N4)cn2)cc1 [Compound 093, 5-(6-((2-(2-(2-(2-(4-aminophenoxy)ethoxy)ethoxy)ethoxy)ethyl)amino)-pyridin-3-yl)indolin-2-one] | – | IC50 (truncated CRBN (319-427); [2]): 1 to 100 µM |
| [N-]=[N+]=NCCOCCOCCOCCNc1ncccc1-c1ccc2c(c1)CC(=O)N2 [Compound 094, 5-(2-((2-(2-(2-(2-azidoethoxy)ethoxy)ethoxy)ethyl)amino)pyridin-3-yl)indolin-2-one] | – | IC50 (truncated CRBN (319-427); [2]): 100 to 300 µM |
| NC1CCN(C(=O)c2ccc3c(c2)CC(=O)N3)CC1 [Compound 078, 5-(4-aminopiperidine-1-carbonyl)indolin-2-one] | > 300 | – |
| O=C1Cc2cc(Cl)c(C(=O)N3CCCCC3)cc2N1 [Compound 030, 5-chloro-6-(piperidine-1-carbonyl)indolin-2-one] | > 300 | – |
| NC1CCCN(C(=O)c2ccc3c(c2)CC(=O)N3)C1 (stereo not shown) [Compound 081, 5-(3-aminopiperidine-1-carbonyl)indolin-2-one] | > 300 | – |
| [N-]=[N+]=NCCOCCOCCOCCNc1ccc(C(=O)Nc2ccc3c(c2)CC(=O)N3)cn1 [Compound 086, 6-((2-(2-(2-(2-azidoethoxy)ethoxy)ethoxy)ethyl)amino)-N-(2-oxoindolin-5-yl)nicotinamide] | – | IC50 (truncated CRBN (319-427); [2]): 1 to 100 µM |
| O=C1Cc2ccc(Oc3ccnc(Cl)n3)cc2N1 [Compound 035, 6-((2-chloropyrimidin-4-yl)oxy)indolin-2-one] | > 300 | – |
| N-(1-acetylpiperidin-4-yl)-2-oxoindoline-6-carboxamide [Compound 026] | > 300 | – |
| [N-]=[N+]=NCCOCCOCCOCCNC(=O)c1cc(-c2ccc3c(c2)NC(=O)C3)ccn1 [Compound 084, N-(2-(2-(2-(2-azidoethoxy)ethoxy)ethoxy)ethyl)-4-(2-oxoindolin-6-yl)picolinamide] | – | IC50 (truncated CRBN (319-427); [2]): 1 to 100 µM |
| O=C1Cc2ccc(-c3cccc(CN4CCNCC4)c3)cc2N1 [Compound 019, 6-(3-(piperazin-1-ylmethyl)phenyl)indolin-2-one] | > 300 | – |
| O=C1Nc2cc(-c3ccncc3)ccc2C1(F)F [Compound 061, 3,3-difluoro-6-(pyridin-4-yl)indolin-2-one] | > 300 | – |
| CN1CCN(C(=O)c2ccc3c(c2)CC(=O)N3)CC1 [Compound 067, 5-(4-methylpiperazine-1-carbonyl)indolin-2-one] | > 300 | – |
| O=C1Cc2ccc(C(=O)NCc3cccnc3)cc2N1 [Compound 033, 2-oxo-N-(pyridin-3-ylmethyl)indoline-6-carboxamide] | > 300 | – |

Further lines, with some results ahead:

| IC50 (truncated CRBN (319-427); ubiquitination moiety) [µM] | Compound | further results |
| --- | --- | --- |
| 1 to 100 | CC(=O)Nc1cc(C)c(-c2ccc3c(c2)CC(=O)N3)cn1 [Compound 050, N-(4-methyl-5-(2-oxoindolin-5-yl)pyridin-2-yl)acetamide] | – |
| 100 to 300 | O=C1Cc2ccc(C(=O)Nc3ccncc3)cc2N1 [Compound 031, 2-oxo-N-(pyridin-4-yl)indoline-6-carboxamide] | – |
| 100 to 300 | O=C1Cc2ccc(NC(=O)c3cccnc3)cc2N1 [Compound 071, N-(2-oxoindolin-6-yl)nicotinamide] | – |
| 100 to 300 | CNc1cc(-c2ccc3c(c2)CC(=O)N3)ccn1 [Compound 047, 5-(2-(methylamino)pyridin-4-yl)indolin-2-one] | – |
| 100 to 300 | Cc1cc(N)ncc1-c1ccc2c(c1)CC(=O)N2 [Compound 043, 5-(6-amino-4-methylpyridin-3-yl)indolin-2-one] | – |
| > 300 | O=C1Cc2ccc(-c3ccc(F)nc3)cc2N1 [Compound 070, 6-(6-fluoropyridin-3-yl)indolin-2-one] | – |
| 100 to 300 | O=C1Cc2cc(C(=O)N3CCC(c4ccccc4)CC3)ccc2N1 [Compound 068, 5-(4-phenylpiperidine-1-carbonyl)indolin-2-one] | – |
| > 300 | O=C1Cc2c(cccc2-c2ccncc2)N1 [Compound 038, 4-(pyridin-4-yl)indolin-2-one] | – |
| > 300 | CC(=O)Nc1ccc(-c2ccc3c(c2)CC(=O)N3)c(C)n1 [Compound 049, N-(6-methyl-5-(2-oxoindolin-5-yl)pyridin-2-yl)acetamide] | – |
| > 300 | CCOC(=O)c1cc(-c2ccc3c(c2)NC(=O)C3)ccn1 [Compound 066, ethyl 4-(2-oxoindolin-6-yl)picolinate] | – |
| > 300 | O=C1Cc2ccc(C(=O)Nc3ccccc3)cc2N1 [Compound 024, 2-oxo-N-phenylindoline-6-carboxamide] | – |
| > 300 | CC1(C)C(=O)Nc2cc(-c3ccncc3)ccc21 [Compound 062, 3,3-dimethyl-6-(pyridin-4-yl)indolin-2-one] | – |
| > 300 | CN1CCC(NC(=O)c2ccc3c(c2)NC(=O)C3)CC1 [Compound 027, N-(1-methylpiperidin-4-yl)-2-oxoindoline-6-carboxamide] | – |
| > 300 | COC(=O)COc1ccc2c(c1)NC(=O)C2 [Compound 036, methyl 2-((2-oxoindolin-6-yl)oxy)acetate] | – |
| > 300 | O=C1Cc2ccc(C(=O)N3CCCCC3)cc2N1 [Compound 029, 6-(piperidine-1-carbonyl)indolin-2-one] | – |
| 100 to 300 | COc1cc(-c2ccc3c(c2)NC(=O)C3)ccn1 [Compound 010, 6-(2-methoxypyridin-4-yl)indolin-2-one] | – |
| > 300 | COc1cc(-c2ccc3c(c2)CC(=O)N3)ccn1 [Compound 041, 5-(2-methoxypyridin-4-yl)indolin-2-one] | – |
| 100 to 300 | O=C1Cc2cc(-c3cccnc3)ccc2N1 [Compound 056, 5-(pyridin-3-yl)indolin-2-one] | – |
| 100 to 300 | CNc1ccc(-c2ccc3c(c2)CC(=O)N3)cn1 [Compound 046, 5-(6-(methylamino)pyridin-3-yl)indolin-2-one] | – |
| 1 to 100 | O=C1Cc2ccc(-c3ccc(CN4CCNCC4)cc3)cc2N1 [Compound 018, 6-(4-(piperazin-1-ylmethyl)phenyl)indolin-2-one] | – |
